SMILES strings stand for the structures.

Common to all, as to format: in vivo
The subject of one experiment is Plutella xylostella. Kind of experiment: Plutella xylostella leaf dip method (cabbage leaves). To be noted: foliar, second instar larvae, 72 h after release, dead and moribund combined, compared to untreated control, read-out: Percent mortality. As to the method: The leaf dip method was used for testing, wherein the required quantity of the compounds were weighed and dissolved in a surfactant solution, kept on a Vortex at 2000 rpm with zirconia beads for 90 min for proper mixing and then diluted with 0.01% Triton-X solution to the desired test concentration. Cabbage leaves were dipped in the solution for 10 seconds, shade dried for 20 min and then transferred to bioassay trays. A single second instar larva was released into each bioassay tray cell and the tray was covered with a lid. The bio-assay trays were kept under laboratory conditions at a temperature of 25° C. and relative humidity of 70%. Observations on dead, moribund and living larvae were recorded at 72 h after the release. Percent mortality was calculated by combining dead and moribund larvae and comparing the result to the one of the untreated control.

In another experiment the test system is Myzus persicae. Nature of the experiment: Myzus persicae leaf dip method (capsicum leaves). To be noted: foliar, third instar nymphs, 72 h after release, dead and moribund combined, compared to untreated control, read-out: Percent mortality. As for the experimental part:
The leaf dip method was used for testing, wherein the required quantity of the test compounds were weighed and dissolved in a surfactant solution, kept on a Vortex at 2000 rpm with zirconia beads for 90 min for proper mixing and then diluted with 0.01% Triton-X solution to the desired test concentration. Capsicum leaves were dipped in the solution for 10 seconds, shade dried for 20 min and then the leaves were kept in glass units with the petiole dipped in water. Known numbers of third instar nymphs were released into the glass units and then kept in the plant growth chambers at a temperature of 25° C. and relative humidity of 70%. Observations on dead, moribund and living nymphs were recorded at 72 h after the release. Percent mortality was calculated by combining dead and moribund nymphs and comparing the result to the one of the untreated control. The compounds 9 14 16 22 23 50 71 104 and 131 were showing efficacy higher than 70 percent mortality @ 300 PPM.

For a further experiment, the system named is Bemisia tabaci. Nature of the experiment: Bemisia tabaci leaf dip method (cotton leaves). The note with it: foliar, freshly emerged adults, 72 h after release, dead and moribund combined, compared to untreated control, read-out: Percent mortality. As for the experimental part: The leaf dip method was used for testing, wherein the required quantity of the test compounds were weighed and dissolved in surfactant solution, kepton a Vortex at 2000 rpm with zirconia beads for 90 min for proper mixing and then diluted with 0.01% Triton-X solution to the desired test concentration. Cotton leaves were dipped in the solution for 10 seconds, shade dried for 20 min and then the leaves were kept in glass units with the petiole dipped in water. Known numbers of freshly emerged adults were released and kept in the plant growth chamber at a temperature of 25° C. and relative humidity of 70%. Observations on dead, moribund and living adults were recorded at 72 h after the release. Percent mortality was calculated by combining dead and moribund adults and comparing the result to the one of the untreated control.

The next experiment concerns Helicoverpa armigera. Nature of the experiment: Helicoverpa armigera diet incorporation method. To be noted: third instar larvae, 96 h after release, dead and moribund combined, compared to untreated control, read-out: Percent mortality. As for the experimental part: Diet incorporation method was used, in which the required quantity of test compounds were weighed and dissolved in a surfactant solution, kept on vortex for 90 min for proper mixing, then was diluted with water to the desired test concentrations. The solutions were incorporated into semi-synthetic diet when the temperature reached approximately 50° C. in the bioassay containers. The diet and solution was stirred thoroughly for properly mixing and then left to cool for 30 min. The solidified diet was cut into equal pieces, and then each piece was transferred into one cell of the bio-assay trays. A single third starved instar larva was released into each of these cells of the bioassay trays and each tray was covered with a lid. The bio-assay trays were kept under laboratory conditions at a temperature of 25° C. and relative humidity of 70%. Observations on dead, moribund and alive larvae were recorded at 96 h after the release of the larvae. Percent mortality was calculated by combining dead and moribund larvae and comparing the result to the one of the untreated control.

The test system of the next experiment is Spodoptera litura. Kind of experiment: Spodoptera litura diet incorporation method. The note with it: third instar larvae, 96 h after release, dead and moribund combined, compared to untreated control, read-out: Percent mortality. As for the experimental part: Diet incorporation method was used, in which the required quantity of test compounds were weighed and dissolved in surfactant solution, kept on vortex for 90 min for proper mixing, then diluted with water to the desired test concentrations. The solutions were incorporated into semi-synthetic diet when the temperature reached approximately 50° C. in the bioassay containers. The diet and solution was stirred thoroughly for properly mixing and was left to cool for 30 min. The solidified diet was cut into equal pieces, and then each piece was transferred into one cell of the bio-assay trays. A single starved third instar larva was released into each of these cells of the bioassay trays and the tray was covered with a lid. The bio-assay trays were kept under laboratory conditions at a temperature of 25° C. and relative humidity of 70%. Observations on dead, moribund and alive larvae were recorded at 96 h after the release of the larvae. Percent mortality was calculated by combining dead and moribund larvae and comparing the result to the one of the untreated control.

In general, mortality refers to the share of the test organisms that died. `CCSc1nn2c(C)cc(C)nc2c1-c1nc2cc(C(F)(F)F)cnc2n1C` [Compound 9, 2-(2-(Ethylthio)-5,7-dimethylpyrazolo[1,5-a]pyrimidin-3-yl)-3-methyl-6-(trifluoromethyl)-3H-imidazo[4,5-b]pyridine]: the mortality at 300 ppm in the experiment with Plutella xylostella and in the experiment on Myzus persicae was more than 70% in each case.

As to `CCSc1nn2cccnc2c1-c1nc2cc(C(F)(F)F)cnc2n1C` [Compound 14, 2-(2-(Ethylthio)pyrazolo[1,5-a]pyrimidin-3-yl)-3-methyl-6-(trifluoromethyl)-3H-imidazo[4,5-b]pyridine], the mortality at 300 ppm in the experiment with Myzus persicae is more than 70%.

On to `CCS(=O)(=O)c1nn2cccnc2c1-c1nc2cc(C(F)(F)F)cnc2n1C` [Compound 16, 2-(2-(Ethylsulfonyl)pyrazolo[1,5-a]pyrimidin-3-yl)-3-methyl-6-(trifluoromethyl)-3H-imidazo[4,5-b]pyridine], for which the mortality at 300 ppm in the experiment on Myzus persicae was more than 70%.

Turning to `CCSc1nn2cccnc2c1-c1nc2cc(C(F)(F)F)ncc2n1C` [Compound 22, 2-(2-(Ethylthio)pyrazolo[1,5-a]pyrimidin-3-yl)-3-methyl-6-(trifluoromethyl)-3H-imidazo[4,5-c]pyridine], the mortality at 300 ppm with Bemisia tabaci, in the experiment with Plutella xylostella and in the experiment with Myzus persicae was more than 70% each time.

Regarding `CCS(=O)(=O)c1nn2cccnc2c1-c1nc2cc(C(F)(F)F)ncc2n1C` [Compound 23, 2-(2-(Ethylsulfonyl)pyrazolo[1,5-a]pyrimidin-3-yl)-3-methyl-6-(trifluoromethyl)-3H-imidazo[4,5-c]pyridine], the mortality at 300 ppm with Myzus persicae is more than 70%.

Take `CCS(=O)(=O)c1nn2c(-c3cc(Cl)cc(Cl)c3)ccnc2c1-c1nc2cc(C(F)(F)F)cnc2n1C` [Compound 26, 2-(7-(3,5-Dichlorophenyl)-2-(ethylsulfonyl)pyrazolo[1,5-a]pyrimidin-3-yl)-3-methyl-6-(trifluoromethyl)-3H-imidazo[4,5-b]pyridine]: the mortality at 300 ppm with Helicoverpa armigera, in the experiment with Plutella xylostella and in the experiment with Spodoptera litura was more than 70% in each case.

Consider `CCS(=O)(=O)c1nn2cc(Cl)cnc2c1-c1nc2cc(C(F)(F)F)cnc2n1C` [Compound 50, 2-(6-Chloro-2-(ethylsulfonyl)pyrazolo[1,5-a]pyrimidin-3-yl)-3-methyl-6-(trifluoromethyl)-3H-imidazo[4,5-b]pyridine], for which the mortality at 300 ppm in the experiment with Plutella xylostella and in the experiment on Myzus persicae was more than 70% in each case.

For the molecule `CCS(=O)(=O)c1nn2cc(Br)cnc2c1-c1nc2cc(C(F)(F)F)cnc2n1C` [Compound 71, 2-(6-Bromo-2-(ethylsulfonyl)pyrazolo[1,5-a]pyrimidin-3-yl)-3-methyl-6-(trifluoromethyl)-3H-imidazo[4,5-b]pyridine], the mortality at 300 ppm in the experiment with Plutella xylostella and in the experiment with Myzus persicae was more than 70% in each case.

Take `CCS(=O)(=O)c1nn2cc(-c3ccc(OC(F)(F)F)cc3)cnc2c1-c1nc2cc(C(F)(F)F)cnc2n1C` [Compound 83, 2-(2-(Ethylsulfonyl)-6-(4-(trifluoromethoxy)phenyl)pyrazolo[1,5-a]pyrimidin-3-yl)-3-methyl-6-(trifluoromethyl)-3H-imidazo[4,5-b]pyridine]: the mortality at 300 ppm with Helicoverpa armigera, with Plutella xylostella and in the experiment on Spodoptera litura was more than 70% each time.

As for `CCSc1nn2c(-c3ccc(OC(F)(F)C(F)F)cc3)ccnc2c1-c1nc2cc(C(F)(F)F)cnc2n1C` [Compound 87, 2-(2-(Ethylthio)-7-(4-(1,1,2,2-tetrafluoroethoxy)phenyl)pyrazolo[1,5-a]pyrimidin-3-yl)-3-methyl-6-(trifluoromethyl)-3H-imidazo[4,5-b]pyridine], the mortality at 300 ppm in the experiment with Helicoverpa armigera, with Plutella xylostella and in the experiment on Spodoptera litura was more than 70% in each case.

On to `CCS(=O)(=O)c1nn2c(-c3ccc(OC(F)(F)C(F)F)cc3)ccnc2c1-c1nc2cc(C(F)(F)F)cnc2n1C` [Compound 90, 2-(2-(Ethylsulfonyl)-7-(4-(1,1,2,2-tetrafluoroethoxy)phenyl)pyrazolo[1,5-a]pyrimidin-3-yl)-3-methyl-6-(trifluoromethyl)-3H-imidazo[4,5-b]pyridine], for which the mortality at 300 ppm with Helicoverpa armigera, with Plutella xylostella and with Spodoptera litura was more than 70% throughout.

Consider `CCSc1nn2c(-c3ccc(OC(F)(F)C(F)F)cc3)ccnc2c1-c1nc2cc(C(F)(F)F)ncc2n1C` [Compound 93, 2-(2-(Ethylthio)-7-(4-(1,1,2,2-tetrafluoroethoxy)phenyl)pyrazolo[1,5-a]pyrimidin-3-yl)-3-methyl-6-(trifluoromethyl)-3H-imidazo[4,5-c]pyridine], for which the mortality at 300 ppm with Helicoverpa armigera, in the experiment on Plutella xylostella and in the experiment on Spodoptera litura was more than 70% in each case.

Regarding `CCS(=O)(=O)c1nn2c(-c3cc(F)cc(F)c3)ccnc2c1-c1nc2cc(C(F)(F)F)cnc2n1C` [Compound 101, 2-(7-(3,5-Difluorophenyl)-2-(ethylsulfonyl)pyrazolo[1,5-a]pyrimidin-3-yl)-3-methyl-6-(trifluoromethyl)-3H-imidazo[4,5-b]pyridine], the mortality at 300 ppm in the experiment with Helicoverpa armigera, in the experiment with Plutella xylostella and in the experiment on Spodoptera litura was more than 70% throughout.

With `CCS(=O)(=O)c1nn2c(-c3cc(F)cc(Cl)c3)ccnc2c1-c1nc2cc(C(F)(F)F)cnc2n1C` [Compound 103, 2-(7-(3-Chloro-5-fluorophenyl)-2-(ethylsulfonyl)pyrazolo[1,5-a]pyrimidin-3-yl)-3-methyl-6-(trifluoromethyl)-3H-imidazo[4,5-b]pyridine], the mortality at 300 ppm in the experiment on Helicoverpa armigera, with Plutella xylostella and in the experiment on Spodoptera litura was more than 70% throughout.

For the molecule `CCS(=O)(=O)c1nn2c(-c3ccc(Cl)c(Cl)c3)ccnc2c1-c1nc2cc(C(F)(F)F)cnc2n1C` [Compound 104, 2-(7-(3,4-Dichlorophenyl)-2-(ethylsulfonyl)pyrazolo[1,5-a]pyrimidin-3-yl)-3-methyl-6-(trifluoromethyl)-3H-imidazo[4,5-b]pyridine], the mortality at 300 ppm in the experiment with Helicoverpa armigera, in the experiment on Plutella xylostella and in the experiment with Myzus persicae was more than 70% each time.

For the molecule `CCS(=O)(=O)c1nn2c(-c3ccc(Cl)c(F)c3)ccnc2c1-c1nc2cc(C(F)(F)F)cnc2n1C` [Compound 118, 2-(7-(4-Chloro-3-fluorophenyl)-2-(ethylsulfonyl)pyrazolo[1,5-a]pyrimidin-3-yl)-3-methyl-6-(trifluoromethyl)-3H-imidazo[4,5-b]pyridine], the mortality at 300 ppm in the experiment with Helicoverpa armigera, in the experiment with Plutella xylostella and in the experiment with Spodoptera litura was more than 70% throughout.

Consider `CCSc1nn2c(-c3ccc(Cl)c(F)c3)ccnc2c1-c1nc2cc(C(F)(F)F)ncc2n1C` [Compound 119, 2-(7-(4-Chloro-3-fluorophenyl)-2-(ethylthio)pyrazolo[1,5-a]pyrimidin-3-yl)-3-methyl-6-(trifluoromethyl)-3H-imidazo[4,5-c]pyridine], for which the mortality at 300 ppm in the experiment with Bemisia tabaci and in the experiment on Plutella xylostella was more than 70% each time.

For `CCSc1nn2c(C)ccnc2c1-c1nc2cc(C(F)(F)F)cnc2n1C` [Compound 131, 2-(2-(Ethylthio)-7-methylpyrazolo[1,5-a]pyrimidin-3-yl)-3-methyl-6-(trifluoromethyl)-3H-imidazo[4,5-b]pyridine], the mortality at 300 ppm in the experiment on Plutella xylostella and in the experiment with Myzus persicae was more than 70% each time.
